Measured values published in paper PMC11904993, “Humanized Candida and NanoBiT Assays Expedite Discovery of Bdf1 Bromodomain Inhibitors With Antifungal Potential” (Advanced Science, 2025).
Values joined by “and” are separate entries in the source; they are usually repeats but may differ in a detail not shown here. Equal entries are not always repeated. Where two headings read alike, the source gives them in different places.

Experiments:
C. auris Bdf1 BD2 = C. auris Bdf1 BD2 (Candidozyma auris (Candida auris), UniProt A0AAW0VEM6); assay: HTRF assay, inhibition of H4ac4 peptide binding
C. albicans = assay: Growth of reference and clinical strains in liquid media; format: cell-based; conditions: for EC50: Candida albicans
Description: (§1) Strains were presented in Table S8 (Supporting Information). Cells from a single colony were diluted in 0.85% NaCl before being counted using a Neubauer chamber. They were diluted to a final concentration of 6500 cells mL^−1 per well for all clinical strains of C. albicans and C. glabrata; 65 000 cells mL^−1 per well for C. auris; 13 500 cells mL^−1 per well for C. parapsilosis; 3375 cells mL^−1 per well for C. krusei and 1687.5 cells mL^−1 per well for C. tropicalis, in a sterile 96‐well plate. Cells were then grown in SC medium with or without chemical compounds at 30 °C with regular shaking. The significance of growth defects was assessed using Holm‐Sidak method by GraphPad Prism 10.

C. glabrata = assay: as above; format: cell-based; conditions: for Growth (%): C. glabrata; for EC50: Nakaseomyces glabratus
Description: as §1

Bdf1/Swc4 = molecular target: T1, Bdf1/Swc4 (Saccharomyces cerevisiae, UniProt P35817); assay: NanoBiT assay, control pair; format: cell-based, S. cerevisiae; set-up: remaining activity: dose or concentration left out as unconfirmed
T1 construct: expressed in transfected cells; host or cells: S. cerevisiae
Description: Yeast strains were distributed in 96‐well microplates containing SC(MSG)‐U medium (SC‐U medium with 0.1% monosodium glutamate instead of ammonium sulfate as a nitrogen source) and grown at 30 °C. 40 µL of exponentially growing cells were transferred in white 96‐well half‐area microplates (ProxiPlate Plus, Greiner Bio‐One) previously filled with 40 µL per well of SC(MSG) containing 100 µM furimazine. The microplates were then incubated for 10 min in the dark before the luminescence signals were recorded using a microplate reader (Ensight, PerkinElmer). Luminescence measurements were performed for 1 s per well at a distance of 0.1 mm between the plate and the detector. The luminescence values were normalized with the optical density (OD600) of the corresponding cultures. For NanoBiT assays with BET inhibitors, yeast cultures were grown overnight at 30 °C in SC(MSG) medium in the presence of serial dilutions of 24c and I‐BET726. Overnight cultures were diluted 5 fold in SC(MSG) and incubated for 1 h before luminescence was recorded as previously indicated. Luminescence values for each condition were normalized using the average of the luminescence recorded for the Bdf1/Swc4 and Bmh1/Bmh2 controls.

[1] = read-out: HTRF signal, normalized (Figure 5A data)

Chain of C. auris Bdf1 BD2 (A0AAW0VEM6 entry or part of it): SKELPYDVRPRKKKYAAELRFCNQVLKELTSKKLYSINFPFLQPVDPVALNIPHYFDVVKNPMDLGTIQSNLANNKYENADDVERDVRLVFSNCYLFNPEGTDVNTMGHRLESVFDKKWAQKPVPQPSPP
T1 sequence (P35817 whole entry): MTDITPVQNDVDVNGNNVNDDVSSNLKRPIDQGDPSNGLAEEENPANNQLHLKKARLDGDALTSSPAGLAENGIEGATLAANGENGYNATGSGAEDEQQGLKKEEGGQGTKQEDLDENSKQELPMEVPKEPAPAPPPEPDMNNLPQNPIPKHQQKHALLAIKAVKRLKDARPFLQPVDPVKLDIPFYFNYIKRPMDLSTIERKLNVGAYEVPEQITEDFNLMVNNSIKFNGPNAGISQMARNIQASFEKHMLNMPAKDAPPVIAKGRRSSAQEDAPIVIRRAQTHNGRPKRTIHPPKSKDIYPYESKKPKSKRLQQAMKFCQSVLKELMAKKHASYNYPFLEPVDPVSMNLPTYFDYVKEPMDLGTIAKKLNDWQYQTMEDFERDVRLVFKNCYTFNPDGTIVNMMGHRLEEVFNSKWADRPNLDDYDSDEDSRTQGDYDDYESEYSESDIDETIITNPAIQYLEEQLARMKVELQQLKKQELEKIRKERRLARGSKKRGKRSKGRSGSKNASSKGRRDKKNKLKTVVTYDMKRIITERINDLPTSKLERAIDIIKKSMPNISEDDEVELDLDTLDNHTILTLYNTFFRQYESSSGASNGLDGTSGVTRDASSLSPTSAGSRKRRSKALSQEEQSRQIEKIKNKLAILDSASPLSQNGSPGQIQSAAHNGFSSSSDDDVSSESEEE
T1 sequence (P53201 whole entry, further chain): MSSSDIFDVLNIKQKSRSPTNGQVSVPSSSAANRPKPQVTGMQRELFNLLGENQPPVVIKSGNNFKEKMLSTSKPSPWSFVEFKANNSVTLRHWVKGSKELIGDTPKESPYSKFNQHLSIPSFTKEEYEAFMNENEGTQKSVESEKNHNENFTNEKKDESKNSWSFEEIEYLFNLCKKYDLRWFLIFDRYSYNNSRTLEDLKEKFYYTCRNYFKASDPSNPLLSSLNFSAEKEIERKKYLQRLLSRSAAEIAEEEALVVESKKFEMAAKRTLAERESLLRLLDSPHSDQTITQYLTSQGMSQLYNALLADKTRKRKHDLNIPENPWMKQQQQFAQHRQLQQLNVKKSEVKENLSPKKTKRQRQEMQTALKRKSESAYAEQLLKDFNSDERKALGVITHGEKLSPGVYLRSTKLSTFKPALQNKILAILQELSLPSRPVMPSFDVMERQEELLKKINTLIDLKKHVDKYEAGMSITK

## CC(=O)N1c2ccc(-c3ccc(C(=O)O)cc3)cc2C(Nc2ccc(Cl)cc2)CC1C (centres unmarked) [I-BET726]
C. auris Bdf1 BD2; CauBD2, 8000 nM, read-out: HTRF signal, normalized (Figure 5A data)
  remaining activity at 8 µM: 5.06%
C. auris Bdf1 BD2; Fig 5A, four replicates, read-out: IC50 (μM) BD2, C. aur. Bdf1
  IC50: 0.23 ± 0.02 µM
C. auris Bdf1 BD2; [1]
  remaining activity at 0.00524 µM: 90.6%
  remaining activity at 8 µM: 2.46%
C. albicans; C. albicans, 1.5625 µM, Fig 5C
  Growth (%): 81% and 83% and 74%
C. albicans; C. albicans, 3.125 µM, Fig 5C
  Growth (%): 66% and 63% and 57%
C. albicans; C. albicans, 25 µM, Fig 5C
  Growth (%): 17% and 23% and 20%
C. albicans; C. albicans, 25 µM, Fig 5E
  Growth (%): 17% and 23% and 20%
C. albicans; ATCC90028, Table S5, C. albicans ATCC90028, WT, read-out: EC50 growth inhibition
  EC50: 4.25 ± 0.47 µM
C. albicans; Fig 5C, read-out: EC50 (μM), C. albicans
  EC50: 4.3 ± 0.5 µM
C. albicans; Table S5, C. albicans CagR, echinocandin-resistant, not characterized, read-out: EC50 growth inhibition
  EC50: 4.14 ± 0.48 µM
C. albicans; all eight azole- and echinocandin-resistant C. albicans clinical isolates, read-out: EC50 growth inhibition
  EC50: 5 to 10 µM
C. albicans; read-out: EC50 growth inhibition, Table S5, C. albicans AF1, echinocandin-resistant, Fks1-HS1 (S645P)
  EC50: 7.13 ± 1.48 µM
C. albicans; read-out: EC50 growth inhibition, Table S5, C. albicans AF2, echinocandin-resistant, Fks1-HS1 (S645P)
  EC50: 4.59 ± 0.95 µM
C. albicans; read-out: EC50 growth inhibition, Table S5, C. albicans AF3, echinocandin-resistant, Fks1-HS1 (S645P)
  EC50: 6.83 ± 0.26 µM
C. albicans; read-out: EC50 growth inhibition, Table S5, C. albicans CAAL74, fluconazole-resistant, Erg11 (Y132F, E266D, G448V, V488I)
  EC50: 5.87 ± 1.03 µM
C. albicans; read-out: EC50 growth inhibition, Table S5, C. albicans DSY292, azole-resistant, Erg11 (Y132H, G464S, R467K)
  EC50: 3.07 ± 0.26 µM
C. albicans; read-out: EC50 growth inhibition, Table S5, C. albicans DSY296, azole-resistant, Erg11 (G129A, G464S, G450E), Tac1 (N977D)
  EC50: 7.36 ± 0.76 µM
C. albicans; read-out: EC50 growth inhibition, Table S5, C. albicans DSY2323, azole-resistant, Erg11 (S405F), Tac1 (G980E)
  EC50: 11.5 ± 1.7 µM
C. albicans; strain AF1, 25 µM, Fig 5E
  Growth (%): 34% and 31% and 28%
C. albicans; strain AF2, 25 µM, Fig 5E
  Growth (%): 26% and 28% and 29%
C. albicans; strain AF3, 25 µM, Fig 5E
  Growth (%): 26% and 25% and 28%
C. albicans; strain CAAL74, 3.13 µM, Fig 5D
  Growth (%): 67% and 74% and 60%
C. albicans; strain CagR, 25 µM, Fig 5E
  Growth (%): 18% and 12%
C. albicans; strain DSY292, 0.78 µM, Fig 5D
  Growth (%): 84% and 81% and 86%
C. albicans; strain DSY292, 3.13 µM, Fig 5D
  Growth (%): 55% and 51%
C. albicans; strain DSY296, 0.78 µM, Fig 5D
  Growth (%): 97% and 88% and 92%
C. albicans; strain DSY296, 3.13 µM, Fig 5D
  Growth (%): 71% and 66% and 72%
C. albicans; strain DSY2323, 3.13 µM, Fig 5D
  Growth (%): 85% and 88% and 76%
C. glabrata; 1.5625 µM, Fig 5C
  Growth (%): 91% and 84% and 88%
C. glabrata; 3.125 µM, Fig 5C
  Growth (%): 88% and 77% and 93%
C. glabrata; 25 µM, Fig 5C
  Growth (%): 62% and 60% and 75%
C. glabrata; read-out: EC50 growth inhibition, Table S5, C. glabrata DSY565, azole-resistant, Pdr1 (L280F)
  EC50: 1.14 ± 0.62 µM
C. glabrata; read-out: EC50 growth inhibition, Table S5, C. glabrata HAB1, azole-resistant, Pdr1 (T370I)
  EC50: 1.66 ± 0.56 µM
C. glabrata; Fig 5C, read-out: EC50 (μM), C. glabrata
  EC50: 12 ± 5.6 µM
C. glabrata; Table S5, C. glabrata ATCC2001, WT, read-out: EC50 growth inhibition
  EC50: 1.52 ± 0.44 µM
Bdf1/Swc4; Bdf1-SmBiT, Swc4-LgBiT, 0.02441 mM, Fig 4C, read-out: Normalized nanoBiT signal
  remaining activity at 24.41 µM: 95%
Bdf1/Swc4; Bdf1-SmBiT, Swc4-LgBiT, 0.09766 mM, Fig 4C, read-out: Normalized nanoBiT signal
  remaining activity at 97.66 µM: 93%
Bdf1/Swc4; Bdf1-SmBiT, Swc4-LgBiT, 0.19531 mM, Fig 4C, read-out: Normalized nanoBiT signal
  remaining activity at 195.31 µM: 95%
Bdf1/Swc4; Bdf1-SmBiT, Swc4-LgBiT, 0.39063 mM, Fig 4C, read-out: Normalized nanoBiT signal
  remaining activity at 390.63 µM: 91%
Bdf1/Swc4; Bdf1-SmBiT, Swc4-LgBiT, 0.78125 mM, Fig 4C, read-out: Normalized nanoBiT signal
  remaining activity at 781.25 µM: 90%
Bdf1/Swc4; Bdf1-SmBiT, Swc4-LgBiT, […], Fig 4C, read-out: Normalized nanoBiT signal
  remaining activity: 99%
Bdf1/Swc4; control pair independent of Bdf1 BDs
  inhibition of NanoBiT signal, Bdf1/Swc4: not observed
Bdf1/Swc4; read-out: Normalized nanoBiT signal
  remaining activity at 48.83 µM: 92%
